# Source: patent US8895695B2, “Template-fixed beta-hairpin peptidomimetics with CXCR4 antagonizing activity” (priority 2003, dated 2014)
# Bridge positions count the residues as written; N and C are the ends. Square brackets hold non-standard residues; d marks the D form. Peptide text beside a SMILES is read from it. Phe(4-F) = N[C@@H](Cc1ccc(F)cc1)C(=O)O; 2Nal = N[C@@H](Cc1ccc2ccccc2c1)C(=O)O; Cit = NC(=O)NCCC[C@H](N)C(=O)O
# Key:
# [1] = system: human red blood cells (hRBC); assay: Hemolysis; format: cell-based
# Protocol: The peptides were tested for their hemolytic activity against human red blood cells (hRBC). Fresh hRBC were washed three times with phosphate buffered saline (PBS) by centrifugation for 10 min at 2000×g. Peptides at a concentration of 100 μM were incubated with 20% v/v hRBC for 1 hour at 37° C. The final erythrocyte concentration was approximately 0.9×10^9 cells per ml. A value of 0% resp. 100% cell lysis was determined by incubation of the hRBC in the presence of PBS alone and respectively 0.1% Triton X-100 in H2O. The samples were centrifuged and the supernatant was 20-fold diluted in PBS buffer and the optical density (OD) of the sample at […] was measured. The 100% lyses value (OD540H2O) gave an OD540 of approximately 1.3-1.8. Percent hemolysis was calculated as follows: (OD540peptide/OD540H2O)×100%.
# [2] = in vitro; details: human
# [3] = molecular target: CXCR4 (Homo sapiens, UniProt P61073); assay: Ca2+-assay method 2 (Flexstation, SDF-1 induced calcium mobilization); format: cell-based; parameters: expressed in transfected cells; host or cells: mouse pre-B cell line 300-19; details: method 2 (Ex. 54-160), mouse pre-B cell line 300-19 with human CXCR4, 10 nM SDF-1; read-out: IC50 (nM) Ca^2+ assay
# Chain of CXCR4 (P61073 whole entry): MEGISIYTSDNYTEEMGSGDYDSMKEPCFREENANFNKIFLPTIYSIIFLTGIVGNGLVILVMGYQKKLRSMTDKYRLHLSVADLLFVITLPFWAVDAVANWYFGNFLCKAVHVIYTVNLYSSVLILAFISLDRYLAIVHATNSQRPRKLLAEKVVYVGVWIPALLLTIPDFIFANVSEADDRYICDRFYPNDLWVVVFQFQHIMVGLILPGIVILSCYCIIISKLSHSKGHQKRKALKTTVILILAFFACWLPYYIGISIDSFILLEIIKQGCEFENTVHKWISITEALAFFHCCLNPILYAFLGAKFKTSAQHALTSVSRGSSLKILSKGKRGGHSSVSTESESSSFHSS
# Protocol: 2.2. Ca^2+-Assay: CXCR4-Antagonizing Activity of the Peptides.
# The cells were batch loaded with the Calcium 3 Assay kit (Molecular Devices) in assay buffer (Hanks Balanced salt solution, HBSS, 20 mM HEPES, pH 7.4, 0.1% BSA) for 1 h at room temperature and then 200,000 labeled cells were dispensed into black 96 well assays plates (Costar No. 3603). A 20-fold concentrated solution of peptide in assay buffer was added to the cells and the whole plate was centrifuged to settle the cells to the bottom of the wells. Calcium mobilization induced by 10 nM stromal-derived factor-1 (SDF-1) was measured in the Flexstation 384 (excitation, 485 nM; emission, 525 nM) for 90 seconds. A maximal change in fluorescence response above baseline was used to calculate antagonist activity. The data for dose response curves (antagonist concentration versus % maximum response) were fitted to a four parameter logistic equation using SoftmaxPro 4.6 (Molecular Devices), from which IC50% values were calculated.
# 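For GI50 in this document: MTT reduction read as absorbance at 595 nm, blank-corrected and expressed as percent growth relative to the time-zero cell reading, triplicate wells per concentration.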
SMILES,Hemolysis at 100 μM [1],GI50 at 48 h [2],IC50 [3]
CC[C@H](C)[C@@H]1NC(=O)[C@H](CCCNC(=N)N)NC(=O)[C@H](Cc2ccc(O)cc2)NC(=O)[C@@H]2CCCN2C(=O)[C@H]2CCCN2C(=O)[C@H](CCCCN)NC(=O)[C@H](CCC(N)=O)NC(=O)[C@H](Cc2ccc(O)cc2)NC(=O)[C@@H]2CSSC[C@H](NC1=O)C(=O)N[C@@H](CCCNC(=N)N)C(=O)NCC(=O)N1CCC[C@@H]1C(=O)N[C@@H](CCCNC(=N)N)C(=O)N[C@@H](CCCNC(=N)N)C(=O)N[C@@H](Cc1ccc3ccccc3c1)C(=O)N2 [Ex. 71] (cyclo(YRICRG[dP]RR[2Nal]CYQK[dP]P); disulfide 4-11),0.1%,34000 nM,2.7 nM
N=C(N)NCCC[C@@H]1NC(=O)[C@@H]2CSSC[C@H](NC(=O)[C@H](Cc3ccc4ccccc4c3)NC(=O)[C@H](CCCNC(=N)N)NC(=O)[C@H](CCCNC(=N)N)NC(=O)[C@H]3CCCN3C(=O)CNC1=O)C(=O)N[C@@H](Cc1ccc(O)cc1)C(=O)N[C@@H](CCC(N)=O)C(=O)N[C@@H](CCCCN)C(=O)N1CCC[C@@H]1C(=O)N1CCC[C@H]1C(=O)N[C@@H](Cc1ccc(O)cc1)C(=O)N[C@@H](CCCNC(=N)N)C(=O)N[C@@H](Cc1ccc(O)cc1)C(=O)N2 [Ex. 72] (cyclo(YRYCRG[dP]RR[2Nal]CYQK[dP]P); disulfide 4-11),0.5%,36000 nM,3.9 nM
N=C(N)NCCC[C@@H]1NC(=O)[C@@H]2CSSC[C@H](NC(=O)[C@H](Cc3ccc4ccccc4c3)NC(=O)[C@H](CCCNC(=N)N)NC(=O)[C@H](CCCNC(=N)N)NC(=O)[C@H]3CCCN3C(=O)CNC1=O)C(=O)N[C@@H](Cc1ccc(O)cc1)C(=O)N[C@@H](CCC(N)=O)C(=O)N[C@@H](CCCCN)C(=O)N1CCC[C@@H]1C(=O)N1CCC[C@H]1C(=O)N[C@@H](Cc1ccc(O)cc1)C(=O)N[C@@H](CCCNC(=N)N)C(=O)N[C@@H](Cc1c[nH]c3ccccc13)C(=O)N2 [Ex. 73] (cyclo(YRWCRG[dP]RR[2Nal]CYQK[dP]P); disulfide 4-11),0.3%,20000 nM,8.8 nM
N=C(N)NCCC[C@@H]1NC(=O)[C@@H]2CSSC[C@H](NC(=O)[C@H](Cc3ccc4ccccc4c3)NC(=O)[C@H](CCCNC(=N)N)NC(=O)[C@H](CCCNC(=N)N)NC(=O)[C@H]3CCCN3C(=O)CNC1=O)C(=O)N[C@@H](Cc1ccc(O)cc1)C(=O)N[C@@H](CCC(N)=O)C(=O)N[C@@H](CCCCN)C(=O)N1CCC[C@@H]1C(=O)N1CCC[C@H]1C(=O)N[C@@H](Cc1ccc(O)cc1)C(=O)N[C@@H](CCCNC(=N)N)C(=O)N1CCC[C@H]1C(=O)N2 [Ex. 74] (cyclo(YRPCRG[dP]RR[2Nal]CYQK[dP]P); disulfide 4-11),0.4%,40000 nM,19.5 nM
N=C(N)NCCC[C@@H]1NC(=O)[C@@H]2CSSC[C@H](NC(=O)[C@H](Cc3ccc4ccccc4c3)NC(=O)[C@H](CCCNC(=N)N)NC(=O)[C@H](Cc3ccc(F)cc3)NC(=O)[C@H]3CCCN3C(=O)CNC1=O)C(=O)N[C@@H](Cc1ccc(O)cc1)C(=O)N[C@@H](CCC(N)=O)C(=O)N[C@@H](CCCCN)C(=O)N1CCC[C@@H]1C(=O)N1CCC[C@H]1C(=O)N[C@@H](Cc1ccc(O)cc1)C(=O)N[C@@H](CCCNC(=N)N)C(=O)N[C@@H](CCCNC(N)=O)C(=O)N2 [Ex. 76] (cyclo(YR[Cit]CRG[dP][Phe(4-F)]R[2Nal]CYQK[dP]P); disulfide 4-11),0.1%,> 100000 nM,5.6 nM
N=C(N)NCCC[C@@H]1NC(=O)[C@@H]2CSSC[C@H](NC(=O)[C@H](Cc3ccc4ccccc4c3)NC(=O)[C@H](CCCNC(=N)N)NC(=O)[C@H](CCCNC(=N)N)NC(=O)[C@H]3CCCN3C(=O)CNC1=O)C(=O)N[C@@H](Cc1ccc(O)cc1)C(=O)N[C@@H](CC(N)=O)C(=O)N[C@@H](CCCCN)C(=O)N1CCC[C@@H]1C(=O)N1CCC[C@H]1C(=O)N[C@@H](Cc1ccc(O)cc1)C(=O)N[C@@H](CCCNC(=N)N)C(=O)N[C@@H](CCCNC(N)=O)C(=O)N2 [Ex. 77] (cyclo(YR[Cit]CRG[dP]RR[2Nal]CYNK[dP]P); disulfide 4-11),0.2%,> 100000 nM,7 nM
N=C(N)NCCC[C@@H]1NC(=O)[C@@H]2CSSC[C@H](NC(=O)[C@H](Cc3ccc4ccccc4c3)NC(=O)[C@H](CCCNC(=N)N)NC(=O)[C@H](CCCNC(=N)N)NC(=O)[C@H]3CCCN3C(=O)CNC1=O)C(=O)N[C@@H](Cc1ccc(O)cc1)C(=O)N[C@@H](CC(=O)O)C(=O)N[C@@H](CCCCN)C(=O)N1CCC[C@@H]1C(=O)N1CCC[C@H]1C(=O)N[C@@H](Cc1ccc(O)cc1)C(=O)N[C@@H](CCCNC(=N)N)C(=O)N[C@@H](CCCNC(N)=O)C(=O)N2 [Ex. 78] (cyclo(YR[Cit]CRG[dP]RR[2Nal]CYDK[dP]P); disulfide 4-11),0.1%,69000 nM,11 nM
N=C(N)NCCC[C@@H]1NC(=O)[C@@H]2CSSC[C@H](NC(=O)[C@H](Cc3ccc4ccccc4c3)NC(=O)[C@H](CCCNC(=N)N)NC(=O)[C@H](CCCNC(=N)N)NC(=O)[C@H]3CCCN3C(=O)CNC1=O)C(=O)N[C@@H](Cc1ccc(O)cc1)C(=O)N[C@@H](CCCCN)C(=O)N[C@@H](CCCCN)C(=O)N1CCC[C@@H]1C(=O)N1CCC[C@H]1C(=O)N[C@@H](Cc1ccc(O)cc1)C(=O)N[C@@H](CCCNC(=N)N)C(=O)N[C@@H](CCCNC(N)=O)C(=O)N2 [Ex. 79] (cyclo(YR[Cit]CRG[dP]RR[2Nal]CYKK[dP]P); disulfide 4-11),0%,94000 nM,2.4 nM
C[C@@H]1NC(=O)[C@H](Cc2ccc(O)cc2)NC(=O)[C@@H]2CSSC[C@H](NC(=O)[C@H](CCCNC(N)=O)NC(=O)[C@H](CCCNC(=N)N)NC(=O)[C@H](Cc3ccc(O)cc3)NC(=O)[C@@H]3CCCN3C(=O)[C@H]3CCCN3C(=O)[C@H](CCCCN)NC1=O)C(=O)N[C@@H](CCCNC(=N)N)C(=O)NCC(=O)N1CCC[C@@H]1C(=O)N[C@@H](CCCNC(=N)N)C(=O)N[C@@H](CCCNC(=N)N)C(=O)N[C@@H](Cc1ccc3ccccc3c1)C(=O)N2 [Ex. 80] (cyclo(YR[Cit]CRG[dP]RR[2Nal]CYAK[dP]P); disulfide 4-11),0.1%,44000 nM,2.9 nM
N=C(N)NCCC[C@@H]1NC(=O)[C@@H]2CSSC[C@H](NC(=O)[C@H](Cc3ccc4ccccc4c3)NC(=O)[C@H](CCCNC(=N)N)NC(=O)[C@H](CCCNC(=N)N)NC(=O)[C@H]3CCCN3C(=O)CNC1=O)C(=O)N[C@@H](Cc1ccc(O)cc1)C(=O)N[C@@H](CO)C(=O)N[C@@H](CCCCN)C(=O)N1CCC[C@@H]1C(=O)N1CCC[C@H]1C(=O)N[C@@H](Cc1ccc(O)cc1)C(=O)N[C@@H](CCCNC(=N)N)C(=O)N[C@@H](CCCNC(N)=O)C(=O)N2 [Ex. 81] (cyclo(YR[Cit]CRG[dP]RR[2Nal]CYSK[dP]P); disulfide 4-11),0%,45000 nM,4.9 nM
CC(C)C[C@@H]1NC(=O)[C@H](Cc2ccc(O)cc2)NC(=O)[C@@H]2CSSC[C@H](NC(=O)[C@H](CCCNC(N)=O)NC(=O)[C@H](CCCNC(=N)N)NC(=O)[C@H](Cc3ccc(O)cc3)NC(=O)[C@@H]3CCCN3C(=O)[C@H]3CCCN3C(=O)[C@H](CCCCN)NC1=O)C(=O)N[C@@H](CCCNC(=N)N)C(=O)NCC(=O)N1CCC[C@@H]1C(=O)N[C@@H](CCCNC(=N)N)C(=O)N[C@@H](CCCNC(=N)N)C(=O)N[C@@H](Cc1ccc3ccccc3c1)C(=O)N2 [Ex. 82] (cyclo(YR[Cit]CRG[dP]RR[2Nal]CYLK[dP]P); disulfide 4-11),0%,40000 nM,4.8 nM
